Values of other authors, collected in patent US20220151997A1, “USE OF EPALRESTAT IN PREPARATION OF PANCREATIC CANCER DRUGS AND METHOD FOR VERIFYING INHIBITION EFFECT OF EPALRESTAT ON SECRETION OF EXOSOMES FROM PANCREATIC CANCER CELLS” (Affiliated Hospital of Nantong University, priority 2019, published 2022).

System: prostate cancer cells
Conditions: by inhibiting the Ras signaling pathway and hnRNP H1 expression

## CCCC[C@@H](C)/C=C(C)/C=C(\C)C(=O)NC1=C[C@@](O)(/C=C/C=C/C=C/C(=O)NC2=C(O)CCC2=O)[C@@H]2O[C@@H]2C1=O [Manumycin A]
  production and secretion of the exosomes: inhibits
